Test results taken from US11000033B2, “Ketone or oxime compound, and herbicide” (NISSAN CHEMICAL CORPORATION, priority 2014, dated 2021).

Columns and labels:
Assay type in all cases: in vivo
Monochoria vaginalis [1] = assay: Test Example 2: herbicidal activity, application during weed generation in submerged conditions (symbol C); conditions: Table 23; application herbicide amount 320 g/ha; grade 0-5 by criteria of Test Example 1
Outline: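 Seeds sown in flooded alluvial soil (4 cm water) were grown in a 25-30° C greenhouse. At the one- to two-leaf stage, diluted emulsion of compound was applied to the water surface at a predetermined rate. Effect was scored 3 weeks later.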

Monochoria vaginalis [2] = assay: Test Example 1: herbicidal activity, application before weed generation in submerged conditions (symbol C); conditions: application herbicide amount 320 g/ha
Outline: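 Application before weed emergence: an aqueous dilution of the emulsion formulation was poured onto the surface of 4 cm-deep floodwater on the day of sowing. Effect was judged after 3 weeks (greenhouse, 25–30 °C).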

Avena fatua = assay: Test Example 4: herbicidal effect by soil treatment (symbol I); conditions: 320 g/ha
Outline: (§1)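 Seeds were sown in sterilized diluvial soil, covered with about 1.5 cm of soil, and the soil surface was sprayed with a water-diluted emulsion of the compound at a predetermined rate. Plants grew in a greenhouse at 25° C. to 30° C.; effects were scored visually 3 weeks after application.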

Abutilon theophrasti = assay: Test Example 4: herbicidal effect by soil treatment (symbol M); conditions: 320 g/ha
Outline: as §1

Lolium multiflorum Lam. = assay: Test Example 5: herbicidal effect by foliage application, plastic box (symbol K); conditions: 320 g/ha, 3 weeks after application
Outline: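 Herbicide, formulated as an emulsion and diluted in water, is sprayed onto the aerial parts of 14-day seedlings. These were grown at 25° C. to 30° C. in sterilized diluvial soil; effects are graded after 3 weeks.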

soybean = assay: Test Example 5: effect on crop by foliage application, plastic box (symbol d); conditions: 320 g/ha, 3 weeks after application
Outline: (§2)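 Crop and weed seeds sown in spots in sterilized diluvial soil in plastic boxes and covered with about 1.5 cm soil. Plants raised in a greenhouse at 25° C. to 30° C. for foliar application.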

corn = assay: Test Example 5: effect on crop by foliage application, plastic box (symbol c); conditions: 320 g/ha, 3 weeks after application
Outline: as §2

Leptochloa chinensis = assay: Test Example 3: herbicidal effect by foliage application, Wagner pot (symbol D); conditions: application herbicide amount 320 g/ha
Outline: (§3)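 Plants sown in submerged alluvial soil (water depth 0.1–0.5 cm) in a 25–30 °C greenhouse and grown 14 days. An emulsion of the compound diluted in water to a set herbicide amount was sprayed uniformly on foliage. Effect on each plant scored 3 weeks after application.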

[3] = test system: Echinochloa crus-galli var. crus-galli; assay: Test Example 3: herbicidal effect by foliage application, Wagner pot (symbol H); conditions: application herbicide amount 320 g/ha
Outline: as §3

Chenopodium album = assay: Test Example 4: herbicidal effect by soil treatment (symbol O); conditions: 320 g/ha
Outline: as §1

rapeseed = assay: Test Example 5: effect on crop by foliage application, plastic box (symbol g); conditions: 320 g/ha, 3 weeks after application
Outline: as §2

Row | SMILES | Herbicidal effect grade, C: Monochoria vaginalis (Monochoria vaginalis [1]) | Herbicidal effect grade, C: Monochoria vaginalis (Monochoria vaginalis [2]) | I: Avena fatua, herbicidal effect grade (Avena fatua) | M: Abutilon theophrasti, herbicidal effect grade (Abutilon theophrasti) | K: Lolium multiflorum Lam., herbicidal effect (criteria 0-5) (Lolium multiflorum Lam.) | d: soybean, effect on crop (criteria 0-5) (soybean) | c: corn, effect on crop (criteria 0-5) (corn) | herbicidal effect on D (Leptochloa chinensis), grade 0-5 (Leptochloa chinensis) | herbicidal effect on H (Echinochloa crus-galli var. crus-galli), grade 0-5 [3] | O: Chenopodium album, herbicidal effect grade (Chenopodium album) | g: rapeseed, effect on crop (criteria 0-5) (rapeseed)
1 | CC(CC1CC(O)=C(c2c(C)cc(C)cc2C)C1=O)=NOCCS(C)(=O)=O (stereo not drawn) [1-110] | 0 (Herbicidal ratio of 5% or lower (almost no effect)) | 0 (Herbicidal ratio of 5% or lower (almost no effect)) | 4 (Herbicidal ratio of 70% or higher and lower than 90%) | 0 (Herbicidal ratio of 5% or lower (almost no effect)) | 5 (Herbicidal ratio of 90% or more (almost completely withered)) | 0 (Herbicidal ratio of 5% or lower (almost no effect)) | 5 (Herbicidal ratio of 90% or more (almost completely withered)) | 5 (Herbicidal ratio of 90% or more (almost completely withered)) | 5 (Herbicidal ratio of 90% or more (almost completely withered)) | 0 (Herbicidal ratio of 5% or lower (almost no effect)) | 5 (Herbicidal ratio of 90% or more (almost completely withered))
2 | CC(CC1CC(O)=C(c2c(C)cc(C)cc2C)C1=O)=NOCC1OCCO1 (stereo not drawn) [1-111] | 0 (Herbicidal ratio of 5% or lower (almost no effect)) | 1 (Herbicidal ratio of 5% or higher and lower than 20%) | 3 (Herbicidal ratio of 40% or higher and lower than 70%) | 4 (Herbicidal ratio of 70% or higher and lower than 90%) | 5 (Herbicidal ratio of 90% or more (almost completely withered)) | 3 (Herbicidal ratio of 40% or higher and lower than 70%) | 5 (Herbicidal ratio of 90% or more (almost completely withered)) | 5 (Herbicidal ratio of 90% or more (almost completely withered)) | 5 (Herbicidal ratio of 90% or more (almost completely withered)) | 0 (Herbicidal ratio of 5% or lower (almost no effect)) | 5 (Herbicidal ratio of 90% or more (almost completely withered))
3 | COc1ccc(CON=C(C)CC2CC(O)=C(c3c(C)cc(C)cc3C)C2=O)cc1 (stereo not drawn) [1-112] | 4 (Herbicidal ratio of 70% or higher and lower than 90%) | 5 (Herbicidal ratio of 90% or more (almost completely withered)) | 3 (Herbicidal ratio of 40% or higher and lower than 70%) | 0 (Herbicidal ratio of 5% or lower (almost no effect)) | 5 (Herbicidal ratio of 90% or more (almost completely withered)) | 0 (Herbicidal ratio of 5% or lower (almost no effect)) | 4 (Herbicidal ratio of 70% or higher and lower than 90%) | 5 (Herbicidal ratio of 90% or more (almost completely withered)) | 5 (Herbicidal ratio of 90% or more (almost completely withered)) | 0 (Herbicidal ratio of 5% or lower (almost no effect)) | 4 (Herbicidal ratio of 70% or higher and lower than 90%)
4 | CC(CC1CC(O)=C(c2c(C)cc(C)cc2C)C1=O)=NOCc1cccc(Cl)c1 (stereo not drawn) [1-114] | 4 (Herbicidal ratio of 70% or higher and lower than 90%) | 5 (Herbicidal ratio of 90% or more (almost completely withered)) | 3 (Herbicidal ratio of 40% or higher and lower than 70%) | 0 (Herbicidal ratio of 5% or lower (almost no effect)) | 5 (Herbicidal ratio of 90% or more (almost completely withered)) | 0 (Herbicidal ratio of 5% or lower (almost no effect)) | 1 (Herbicidal ratio of 5% or higher and lower than 20%) | 5 (Herbicidal ratio of 90% or more (almost completely withered)) | 5 (Herbicidal ratio of 90% or more (almost completely withered)) | 0 (Herbicidal ratio of 5% or lower (almost no effect)) | 4 (Herbicidal ratio of 70% or higher and lower than 90%)
5 | CC(CC1CC(O)=C(c2c(C)cc(C)cc2C)C1=O)=NOCc1ccccc1C(F)(F)F (stereo not drawn) [1-116] | 2 (Herbicidal ratio of 20% or higher and lower than 40%) | 5 (Herbicidal ratio of 90% or more (almost completely withered)) | 3 (Herbicidal ratio of 40% or higher and lower than 70%) | 2 (Herbicidal ratio of 20% or higher and lower than 40%) | 5 (Herbicidal ratio of 90% or more (almost completely withered)) | 3 (Herbicidal ratio of 40% or higher and lower than 70%) | 5 (Herbicidal ratio of 90% or more (almost completely withered)) | 3 (Herbicidal ratio of 40% or higher and lower than 70%) | 5 (Herbicidal ratio of 90% or more (almost completely withered)) | 0 (Herbicidal ratio of 5% or lower (almost no effect)) | 5 (Herbicidal ratio of 90% or more (almost completely withered))
6 | CC(CC1CC(O)=C(c2c(C)cc(C)cc2C)C1=O)=NOCc1cccc(C(F)(F)F)c1 (stereo not drawn) [1-117] | 3 (Herbicidal ratio of 40% or higher and lower than 70%) | 5 (Herbicidal ratio of 90% or more (almost completely withered)) | 0 (Herbicidal ratio of 5% or lower (almost no effect)) | 0 (Herbicidal ratio of 5% or lower (almost no effect)) | 5 (Herbicidal ratio of 90% or more (almost completely withered)) | 0 (Herbicidal ratio of 5% or lower (almost no effect)) | 3 (Herbicidal ratio of 40% or higher and lower than 70%) | 4 (Herbicidal ratio of 70% or higher and lower than 90%) | 5 (Herbicidal ratio of 90% or more (almost completely withered)) | 0 (Herbicidal ratio of 5% or lower (almost no effect)) | 5 (Herbicidal ratio of 90% or more (almost completely withered))
